Measured values reported in PubChem BioAssay AID2060899 (Molecular Pharmacology Branch, DTP, NCI, 2025).

Test system: 565726-208-R1-J5-PDC complex spheroids, growth inhibition
Test: Anticancer human tumor 565726-208-R1-J5-PDC patient-derived pancreatic adenocarcinoma cell line growth inhibition [RAS]
Conditions: for IC50: curve of first compound; for viability, T/C: stronger effect = lower value
Source text: RAS pathway inhibitors in Combinations in Complex Spheroids
A high-throughput screen of multi-cell type tumor spheroids was designed to identify active combinations of RAS pathway inhibitors and targeted small molecules. Complex spheroids include a stromal component modeled by human endothelial cells (HUVEC) and fibroblasts modeled by human mesenchymal stem cells (MSCs). The concentration ranges selected for each drug and investigational agent were based upon clinically achievable concentrations if the clinical Cmax of the agent was known.
Compounds. The drugs and investigational agents: abemaciclib (NSC768073), cobimetinib (NSC768068), divarasib (GDC6063, NSC841802), docetaxel (NSC628503), GDC-1971 (RLY-1971, NSC841576), gemcitabine (NSC613327), inavolisib (NSC800729), ipatasertib (NSC767898), KB-0742 (NSC834161), MRTX-1133 (NSC836407), osimertinib (NSC779217), RMC-4630 (NSC839698), RMC-6236 (NSC851965), RMC-6291 (NSC852671), Ro-3306 (NSC812927), sapanisertib (NSC764658), SN-38 (NSC673596), staurosporine (NSC755774), SY5609 (NSC837396), and tovorafenib (DAY101, NSC766906), were obtained from the National Cancer Institute (NCI) Developmental Therapeutics Program Chemical Repository. The FDA-approved anticancer drug set is available from the NCI Developmental Therapeutics Program. […] The stock solutions were prepared in dimethyl sulfoxide (DMSO, Sigma-Aldrich, St. Louis, MO, cat. D2650) at 800-fold the tested concentration and stored at -70 degrees C prior to their use. All drugs and investigational agents were tested over a range starting from a high concentration at or near the clinical Cmax and decreasing in half-log increments. If the clinical Cmax for an agent had not been determined, the highest concentration tested was 10 microM.
Cell Culture. All cells were maintained in an incubator at 37 degrees C and 5% CO2 with 95% humidity. The PDC lines were cultured according to standard operating procedures established by the NCI PDMR. All PDCs were thawed and cultured in Matrigel-coated flasks prepared with a working solution of 1X Ham's F-12 nutrient mix, without supplementation (Invitrogen, Waltham, MA, cat. 11765054), 100 U/mL penicillin-streptomycin (Invitrogen, cat. 15140122), and 2.5% Matrigel (Corning Inc., Corning, NY, cat. 354248) for the first three passages. The 362531-283-R-J2-PDC and 782815-120-R-J1-PDC lines were cultured in 6C/Colon 1B media, which includes advanced DMEM/F-12 (Thermo Fisher Scientific, cat. 12634028), 10 mM HEPES (Thermo Fisher Scientific, cat. 15630080), 1X GlutaMAX supplement (Thermo Fisher Scientific, cat. 35050061), 0.1 mg/mL primocin (InvivoGen, San Diego, CA, cat. ant-pm-2), 10% defined fetal bovine serum, heat inactivated (HyClone Laboratories Inc., Logan, UT, cat. SH30070.03HI), 50% L-WRN conditioned media (ATCC, cat. CRL-3276), 1.25 mM N-Acetyl-L-cysteine (Sigma-Aldrich, cat. A9165), 10 mM nicotinamide (Sigma-Aldrich, cat. N0636), 1X B-27 supplement (Thermo Fisher Scientific, cat. 17504044), 1X N-2 supplement (Thermo Fisher Scientific, cat. 17502048), 50 ng/mL human EGF (Thermo Fisher Scientific, cat. PHG0311), and 10 microM Y-27632 dihydrochloride (Tocris Bioscience, cat. 1254). The K12877-001-R-J1-PDC line was cultured in 6I media, which includes all 6C/Colon 1B media plus 10 ng/mL human FGF-10 (PeproTech, cat. 100-26), 1 ng/mL human FGF-2 (PeproTech, cat. 100-18B), 1 µM prostaglandin E2 (Tocris Bioscience, cat. 2296), […] hydrocortisone (Sigma-Aldrich, cat. H4001), and […] bovine insulin (Sigma-Aldrich, cat. I6634). The K86415-001-R-J1-PDC line was cultured in 6D media, which includes all 6C/Colon 1B media components minus the L-WRN conditioned media. The 485176-168-R4-J1-PDC was cultured in PANC media, which includes all 6C/Colon 1B media plus 100 ng/mL human FGF-10 (PeproTech, cat. 100-26), 500 nM SB-431542 (Selleckchem, cat. S1067), and 10 nM gastrin (Tocris Bioscience, cat. 3006). […]
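Also: spheroids exposed to compounds for seven days before readout.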
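For viability, T/C in this document: 100% = DMSO vehicle control viability.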

IC50 (second compound 0.00316 µM): 6.76 nM
IC50 (second compound 0.01 µM): 7.74 nM
IC50 (second compound 0.0316 µM): 5.42 nM
IC50 (second compound 0.1 µM): 5.76 nM
IC50 (second compound 0.316 µM): 6.16 nM
IC50 (second compound 1 µM): 6.81 nM
Compound: CC1(C)CCC(Nc2ncc(C(F)(F)F)c(-c3c[nH]c4c(P(C)(C)=O)c(C#N)ccc34)n2)CN1 (configuration not stated) + C=CC(=O)N1CCN(c2nc(OCC3CCCN3C)nc3c(F)c(-c4nc(N)cc(C)c4C(F)(F)F)c(Cl)cc23)C(C)C1
viability, T/C (second compound 0.00316 µM, first compound 0.000949 µM): 133%
viability, T/C (second compound 0.00316 µM, first compound 0.003 µM): 73.7%
viability, T/C (second compound 0.00316 µM, first compound 0.00949 µM): 40.1%
viability, T/C (second compound 0.00316 µM, first compound 0.03 µM): 40.4%
viability, T/C (second compound 0.00316 µM, first compound 0.0949 µM): 41.2%
viability, T/C (second compound 0.00316 µM, first compound 0.3 µM): 37.3%
viability, T/C (second compound 0.01 µM, first compound 0.000949 µM): 136%
viability, T/C (second compound 0.01 µM, first compound 0.003 µM): 74.6%
viability, T/C (second compound 0.01 µM, first compound 0.00949 µM): 46%
viability, T/C (second compound 0.01 µM, first compound 0.03 µM): 34.2%
viability, T/C (second compound 0.01 µM, first compound 0.0949 µM): 41.3%
viability, T/C (second compound 0.01 µM, first compound 0.3 µM): 39.9%
viability, T/C (second compound 0.0316 µM, first compound 0.000949 µM): 127%
viability, T/C (second compound 0.0316 µM, first compound 0.003 µM): 65.8%
viability, T/C (second compound 0.0316 µM, first compound 0.00949 µM): 34.2%
viability, T/C (second compound 0.0316 µM, first compound 0.03 µM): 28.4%
viability, T/C (second compound 0.0316 µM, first compound 0.0949 µM): 39.7%
viability, T/C (second compound 0.0316 µM, first compound 0.3 µM): 37.7%
viability, T/C (second compound 0.1 µM, first compound 0.000949 µM): 143%
viability, T/C (second compound 0.1 µM, first compound 0.003 µM): 67.7%
viability, T/C (second compound 0.1 µM, first compound 0.00949 µM): 33.7%
viability, T/C (second compound 0.1 µM, first compound 0.03 µM): 36.8%
viability, T/C (second compound 0.1 µM, first compound 0.0949 µM): 39%
viability, T/C (second compound 0.1 µM, first compound 0.3 µM): 36.5%
viability, T/C (second compound 0.316 µM, first compound 0.000949 µM): 130%
viability, T/C (second compound 0.316 µM, first compound 0.003 µM): 67.3%
viability, T/C (second compound 0.316 µM, first compound 0.00949 µM): 40.2%
viability, T/C (second compound 0.316 µM, first compound 0.03 µM): 32.5%
viability, T/C (second compound 0.316 µM, first compound 0.0949 µM): 38%
viability, T/C (second compound 0.316 µM, first compound 0.3 µM): 34.6%
viability, T/C (second compound 1 µM, first compound 0.000949 µM): 140%
viability, T/C (second compound 1 µM, first compound 0.003 µM): 70.2%
viability, T/C (second compound 1 µM, first compound 0.00949 µM): 41.7%
viability, T/C (second compound 1 µM, first compound 0.03 µM): 38.9%
viability, T/C (second compound 1 µM, first compound 0.0949 µM): 36.5%
viability, T/C (second compound 1 µM, first compound 0.3 µM): 38.9%
